Counter-ions that a name gives are not always drawn.
Molecular target: JAK2 (Homo sapiens (Human), UniProt O60674)
Assay: JAK2 Tyrosine Kinase Assay
Format: biochemical
Conditions: ATP 30 μM; JAK2 1 nM; 60 min at room temperature
Description: JAK2 Tyrosine Kinase Assay
The assays were performed in V-bottom 384-well plates. […] The reaction was initiated by the combination of JAK2 with substrates and test compounds. The reaction was incubated at room temperature for 60 min. and terminated by adding 45 μl of 35 mM EDTA to each sample. The reaction mixture was analyzed on the Caliper LABCHIP® 3000 by electrophoretic separation of the fluorescent substrate and phosphorylated product. […] Compounds were dissolved at 10 mM in dimethylsulfoxide (DMSO) and evaluated at eleven concentrations, each in duplicate. IC50 values were derived by non-linear regression analysis

JAK2, sequence (O60674 whole entry): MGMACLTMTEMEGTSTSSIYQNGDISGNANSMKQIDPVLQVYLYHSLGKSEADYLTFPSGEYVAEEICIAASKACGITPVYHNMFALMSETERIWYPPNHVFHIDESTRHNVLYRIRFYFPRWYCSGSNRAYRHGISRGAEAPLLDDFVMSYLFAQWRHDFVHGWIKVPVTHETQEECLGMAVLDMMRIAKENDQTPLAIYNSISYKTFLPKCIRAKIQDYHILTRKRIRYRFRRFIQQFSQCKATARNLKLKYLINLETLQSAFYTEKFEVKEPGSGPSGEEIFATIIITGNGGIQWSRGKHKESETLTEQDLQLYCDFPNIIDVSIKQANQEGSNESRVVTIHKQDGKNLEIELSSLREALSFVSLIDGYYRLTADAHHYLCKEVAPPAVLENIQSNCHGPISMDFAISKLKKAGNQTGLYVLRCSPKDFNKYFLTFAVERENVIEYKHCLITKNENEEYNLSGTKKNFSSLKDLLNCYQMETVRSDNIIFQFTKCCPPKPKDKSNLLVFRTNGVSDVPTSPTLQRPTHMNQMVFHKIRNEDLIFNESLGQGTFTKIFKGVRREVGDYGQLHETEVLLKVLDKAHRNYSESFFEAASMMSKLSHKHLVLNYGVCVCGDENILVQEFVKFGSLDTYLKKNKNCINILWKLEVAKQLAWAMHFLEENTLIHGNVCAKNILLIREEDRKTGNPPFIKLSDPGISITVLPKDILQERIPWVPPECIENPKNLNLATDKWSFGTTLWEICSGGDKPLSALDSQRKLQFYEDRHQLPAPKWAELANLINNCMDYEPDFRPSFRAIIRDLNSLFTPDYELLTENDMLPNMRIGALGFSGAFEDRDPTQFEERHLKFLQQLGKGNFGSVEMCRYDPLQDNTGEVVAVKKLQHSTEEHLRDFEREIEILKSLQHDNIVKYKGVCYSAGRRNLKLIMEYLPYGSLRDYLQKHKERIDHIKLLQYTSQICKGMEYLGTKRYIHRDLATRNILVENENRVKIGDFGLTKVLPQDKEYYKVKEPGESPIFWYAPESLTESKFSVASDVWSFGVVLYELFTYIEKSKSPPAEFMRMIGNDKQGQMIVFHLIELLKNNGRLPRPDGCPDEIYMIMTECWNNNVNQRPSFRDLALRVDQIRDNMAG

Structure (SMILES)	IC50 [nM]
NC(=O)c1cc(-c2ccc(Cl)c(Cl)c2)cc2c1[nH]c1ccc(C(=O)NCCN3CCOCC3)cc12 [Example 51, 3-(3,4-dichlorophenyl)-N^6-(2-(4-morpholinyl)ethyl)-9H-carbazole-1,6-dicarboxamide]	6
CN(C)CCNC(=O)c1ccc2[nH]c3c(C(N)=O)cc(-c4ccc(Cl)c(Cl)c4)cc3c2c1 [Example 56, 3-(3,4-dichlorophenyl)-N^6-(2-(dimethylamino)ethyl)-9H-carbazole-1,6-dicarboxamide]	6
COc1cc(-c2cc(C(N)=O)c3[nH]c4cc(C(=O)N5CCN(C)CC5)ccc4c3c2)ccc1NC(=O)OC(C)(C)C [Example 73, tert-butyl (4-(1-carbamoyl-7-((4-methyl-1-piperazinyl)carbonyl)-9H-carbazol-3-yl)-2-methoxyphenyl)carbamate]	160
CN1CCN(C(=O)c2ccc3c(c2)[nH]c2c(C(N)=O)cc(-c4ccc(Cl)nc4)cc23)CC1 [Example 76, 3-(6-chloro-3-pyridinyl)-7-((4-methyl-1-piperazinyl)carbonyl)-9H-carbazole-1-carboxamide]	7
COc1cccc(-c2cc(C(N)=O)c3[nH]c4cc(C(=O)N5CCN(Cc6cccnc6)CC5)ccc4c3c2)c1 [Example 88, 3-(3-methoxyphenyl)-7-((4-(3-pyridinylmethyl)-1-piperazinyl)carbonyl)-9H-carbazole-1-carboxamide]	6
COCCCN1CCN(C(=O)c2ccc3c(c2)[nH]c2c(C(N)=O)cc(-c4cccc(OC)c4)cc23)CC1 [Example 106, 3-(3-methoxyphenyl)-7-((4-(3-methoxypropyl)-1-piperazinyl)carbonyl)-9H-carbazole-1-carboxamide]	< 1
CC(C)Oc1ccc2[nH]c3c(C(N)=O)cc(-c4ccc(Cl)c(Cl)c4)cc3c2c1 [Example 140, 3-(3,4-Dichlorophenyl)-6-isopropoxy-9H-carbazole-1-carboxamide]	150
NC(=O)c1cc(-c2ccc(OC(F)(F)F)cc2)cc2c1[nH]c1cc(C(=O)N3CCOCC3)ccc12 [Example 151, 7-(4-morpholinylcarbonyl)-3-(4-(trifluoromethoxy)phenyl)-9H-carbazole-1-carboxamide]	6
COc1ccc(-c2cc(C(N)=O)c3[nH]c4ccc(C(=O)N5CCOCC5)cc4c3c2)cc1OC [Example 166, 3-(3,4-dimethoxyphenyl)-6-(4-morpholinylcarbonyl)-9H-carbazole-1-carboxamide]	6
COc1cc(-c2cc(C(N)=O)c3[nH]c4ccc(C(=O)N5CCOC(CO)C5)cc4c3c2)cc(OC)c1OC (stereo not shown) [Example 183, 6-(2-(hydroxymethyl)morpholine-4-carbonyl)-3-(3,4,5-trimethoxyphenyl)-9H-carbazole-1-carboxamide]	160
NC(=O)c1cc(-c2cccc(Cl)c2)cc2c1[nH]c1ccc(C(=O)N3CCOC(CO)C3)cc12 (stereo not shown) [Example 185, 3-(3-chlorophenyl)-6-(2-(hydroxymethyl)morpholine-4-carbonyl)-9H-carbazole-1-carboxamide]	1
COc1cccc(-c2cc(C(N)=O)c3[nH]c4ccncc4c3c2)c1 [Example 203, 8-(3-Methoxyphenyl)-5H-pyrido[4,3-b]indole-6-carboxamide, HCl]	34
COc1ccc(-c2nc(C(N)=O)c3[nH]c4cc(OC)ccc4c3n2)cc1 [Example 210, 7-Methoxy-2-(4-methoxyphenyl)-5H-pyrimido[5,4-b]indole-4-carboxamide]	170
COc1ccc(-c2cc(C(N)=O)c3[nH]c4cc(C(=O)N5CC[C@H](N(C)C)C5)ccc4c3n2)cc1F [Example 211, (S)-7-(3-(Dimethylamino)pyrrolidine-1-carbonyl)-2-(3-fluoro-4-methoxyphenyl)-5H-pyrido[3,2-b]indole-4-carboxamide]	< 1
NC(=O)c1cc(-c2ccc(F)c(F)c2)nc2c1[nH]c1cc(C(=O)N3CCOCC3)ccc12 [Example 216, 2-(3,4-difluorophenyl)-7-(4-morpholinylcarbonyl)-5H-pyrido[3,2-b]indole-4-carboxamide]	7
NC(=O)c1cc(-c2ccc(Cl)cc2)nc2c1[nH]c1cc(C(=O)N3CCOCC3)ccc12 [Example 227, 2-(4-chlorophenyl)-7-(4-morpholinylcarbonyl)-5H-pyrido[3,2-b]indole-4-carboxamide]	2
NC(=O)c1cc(-c2ccc(Cl)c(Cl)c2)nc2c1[nH]c1cc(OCCN3CCOCC3)ccc12 [Example 245]	7
CC(C)(C)N1CCN(Cc2ccc3c(c2)[nH]c2c(C(N)=O)cc(-c4cccc(Cl)c4)nc23)CC1 [Example 256, 7((4-tert-Butyl-1-piperazinyl)methyl)-2-(3-chlorophenyl)-5H-pyrido[3,2-b]indole-4-carboxamide]	1
CN1CCN(c2ccc3c(c2)[nH]c2c(C(N)=O)cc(-c4cccc(Cl)c4)nc23)CC1 [Example 309, 2-(3-chlorophenyl)-7-(4-methylpiperazin-1-yl)-5H-pyrido[3,2-b]indole-4-carboxamide]	1

Continued, values first:

IC50 [nM]	Structure (SMILES)
1	NC(=O)c1cc(-c2cccc(Cl)c2)cc2c1[nH]c1ccc(C(=O)N3CCOCC3)cc12 [Example 15, 3-(3-chlorophenyl)-6-(morpholine-4-carbonyl)-9H-carbazole-1-carboxamide]
6	NC(=O)c1cc(-c2ccc(Cl)c(Cl)c2)cc2c1[nH]c1ccc(C(=O)N[C@@H]3CCNC3)cc12 [Example 49, 3-(3,4-dichlorophenyl)-N^6-((3R)-3-pyrrolidinyl)-9H-carbazole-1,6-dicarboxamide]
6	CN1CCN(C(=O)c2ccc3c(c2)[nH]c2c(C(N)=O)cc(-c4ccc(Cl)c(Cl)c4)cc23)CC1 [Example 61, 3-(3,4-dichlorophenyl)-7-((4-methyl-1-piperazinyl)carbonyl)-9H-carbazole-1-carboxamide]
6	COc1ccc(-c2cc(C(N)=O)c3[nH]c4cc(C(=O)N5CCN(C)CC5)ccc4c3c2)cc1F [Example 79, 3-(3-fluoro-4-methoxyphenyl)-7-((4-methyl-1-piperazinyl)carbonyl)-9H-carbazole-1-carboxamide]
6	CN1CCN(C(=O)c2ccc3c(c2)[nH]c2c(C(N)=O)cc(-c4ccccc4)cc23)CC1 [Example 80, 7-((4-methyl-1-piperazinyl)carbonyl)-3-phenyl-9H-carbazole-1-carboxamide]
< 1	COc1cccc(-c2cc(C(N)=O)c3[nH]c4cc(C(=O)N(C)CCS(C)(=O)=O)ccc4c3c2)c1 [Example 96, 3-(3-methoxyphenyl)-N^7-methyl-N^7-(2-(methylsulfonyl)ethyl)-9H-carbazole-1,7-dicarboxamide]
6	COc1cccc(-c2cc(C(N)=O)c3[nH]c4cc(C(=O)N5C[C@@H]6C[C@H]5CO6)ccc4c3c2)c1 [Example 124, 3-(3-methoxyphenyl)-7-((1S,4S)-2-oxa-5-azabicyclo[2.2.1]hept-5-ylcarbonyl)-9H-carbazole-1-carboxamide]
1230	CNC(=O)c1cc(-c2ccc(OC)cc2)nc2c1[nH]c1cc(OC)ccc12 [Example 128, 7-Methoxy-2-(4-methoxyphenyl)-N-methyl-5H-pyrido[3,2-b]indole-4-carboxamide]
110	COc1ccc(-c2cc(C(N)=O)c3[nH]c4nc(OC)ccc4c3n2)cc1 [Example 129, 7-Methoxy-2-(4-methoxyphenyl)-5H-pyrido[2′,3′:4,5]pyrrolo[2,3-b]pyridine-4-carboxamide]
7	COc1cccc(-c2cc(C(N)=O)c3[nH]c4cc(NC(=O)OCCN)ccc4c3c2)c1 [Example 132, 2-aminoethyl (8-carbamoyl-6-(3-methoxyphenyl)-9H-carbazol-2-yl)carbamate]
310	COC(=O)c1ccc2c(c1)[nH]c1c(C(N)=O)cc(-c3cccc(OC)c3)cc12 [Example 142, Methyl 8-carbamoyl-6-(3-methoxyphenyl)-9H-carbazole-2-carboxylate]
110	COC(=O)c1cccc2[nH]c3c(C(N)=O)cc(-c4cccc(OC)c4)cc3c12 [Example 143, Methyl 8-carbamoyl-6-(3-methoxyphenyl)-9H-carbazole-4-carboxylate]
2	NC(=O)c1cc(-c2ccc(Cl)c(Cl)c2)cc2c1[nH]c1ccc(C(=O)N3CCOC(CO)C3)cc12 (stereo not shown) [Example 180, 3-(3,4-dichlorophenyl)-6-(2-(hydroxymethyl)morpholine-4-carbonyl)-9H-carbazole-1-carboxamide]
2	COc1ccc(-c2cc(C(N)=O)c3[nH]c4ccc(C(=O)N5CCC[C@H](O)C5)cc4c3c2)cc1F [Example 190, (S)-3-(3-fluoro-4-methoxyphenyl)-6-(3-hydroxypiperidine-1-carbonyl)-9H-carbazole-1-carboxamide]
1	COc1ccc(-c2cc(C(N)=O)c3[nH]c4ccc(C(=O)N5C[C@@H]6C[C@H]5CO6)cc4c3c2)cc1F [Example 196, 6-((1S,4S)-2-oxa-5-azabicyclo[2.2.1]heptane-5-carbonyl)-3-(3-fluoro-4-methoxyphenyl)-9H-carbazole-1-carboxamide]
1	COc1ccc(-c2cc(C(N)=O)c3[nH]c4ccc(C(=O)N5CCC(O)CC5)cc4c3c2)cc1F [Example 197, 3-(3-fluoro-4-methoxyphenyl)-6-(4-hydroxypiperidine-1-carbonyl)-9H-carbazole-1-carboxamide]
29	COc1cccc(-c2cc(C(N)=O)c3[nH]c4cccnc4c3c2)c1 [Example 204, 8-(3-Methoxyphenyl)-5H-pyrido[3,2-b]indole-6-carboxamide, HCl]
1	NC(=O)c1cc(-c2cccc(Cl)c2)nc2c1[nH]c1ccc(CN3CCOCC3)cc12 [Example 257, 2-(3-Chlorophenyl)-8-(morpholinomethyl)-5H-pyrido[3,2-b]indole-4-carboxamide]

From patent US8815840B2, “Carbazole and carboline kinase inhibitors” (Bristol-Myers Squibb Company, priority 2008, dated 2014)
